Data: patent publication US8406870B2, “Treating cancer using electromagnetic fields in combination with other treatment regimens” (priority 2006, dated 2013)
Like-named read-outs stand apart in the source and are kept apart here.

How the values were obtained:
[1] = test system: human breast cancer (MDA-231) cells; assay: XTT cell proliferation assay, first set of experiments; type: cell-based; details: 24 h
Protocol: (§1) The MDA-231 and B16F10 cells were obtained from ATCC (USA). […] The experiments were performed in 35 mm Petri dishes (NUNC, USA). Cisplatin and Taxol were obtained from Sigma (USA). A cell proliferation assay kit was obtained from Biological Industries Ltd., Israel. […] XTT is cleaved to formazan (absorbs at 450-500 nm) by the “succinate-tetrazolium reductase” system of the respiratory chain of the mitochondria and is active only in viable cells. Therefore, the amount of formazan dye (A450 nm) formed directly correlates to the number of metabolically active cells in culture. The XTT assay is widely used for the measurement of cell proliferation in response to growth factors, cytokines, mitogens, nutrients, anti-cancer drugs and physiological mediators.) The media in the Petri dish was replaced by fresh media (3 ml with or without Taxol or Cisplatin), thermo-couples were placed at the center, and the dish cover was replaced by one with attached electrodes. Cell samples without […] treatment were placed in CO2 incubator at 37° C. for 24 hours, while […] treated samples were placed in CO2 incubator at 25° C., also for 24 hours. Final incubation temperature of […] treated samples was 37±0.7° C. due to heating induced by TTFields (as measured by inserted thermo-couples). […] The rate of cell proliferation was calculated as a ratio of the final cell number to the initial cell number (OD1/OD0). […] For those samples that were subjected to TTFields, two-directional 200 kHz sinusoidal TTFields were generated by an appropriate waveform generator and an amplifier. The output of the amplifier was switched between two pairs of outputs every 250 mSec, with the outputs connected to two pairs of electrodes, insulated by a high dielectric constant ceramic (e.g., PMN-PT, EDO Corporation, Utah), positioned in the Petri dish as depicted in FIG. 1. Field intensity in the medium surrounding the cells was measured to be approximately 7 V/cm.

[2] = test system: mouse melanoma (B16F10) cells; assay: as above; type: cell-based; details: 24 h
Protocol: as §1

[3] = test system: human non-small cell lung cancer (H1299) cells; type: cell-based

CC(=O)O[C@H]1C(=O)[C@@]2(C)[C@H]([C@H](OC(=O)c3ccccc3)[C@]3(O)C[C@H](OC(=O)[C@H](O)[C@@H](NC(=O)c4ccccc4)c4ccccc4)C(C)=C1C3(C)C)[C@]1(OC(C)=O)CO[C@@H]1C[C@@H]2O [Paclitaxel]
cells died under the influence of the combined treatment ([1]; Taxol 0.05 μM + TTFields 200 kHz approx. 7 V/cm): about 40%
reduced cell proliferation as compared with the control ([1]; Taxol 0.05 μM alone): 70%
cell proliferation, drug alone compared with drug + TTFields ([2]; Taxol 0.05 μM): reduced cell proliferation to a lesser extent
Combination index CI40 ([3]; Paclitaxel + TTFields 1.25 V/cm): 0.73
effect on cell proliferation rate, combination versus drug alone ([3]; Paclitaxel + TTFields 1.25 V/cm and 1.75 V/cm, all concentrations studied): significant additional decrease in cell proliferation rate
Combination index CI40 ([3]; Paclitaxel + TTFields 1.75 V/cm): 0.98
induction of cell death ([3]; Paclitaxel alone at concentrations up to 500 nM): not observed
cell proliferation rate (% of control) ([3]; Paclitaxel alone, concentrations above 200 nM, 24 h): 55%
induction of cell death ([3]; higher concentrations of Paclitaxel in combination with TTFields): cell death is induced

O=P1(N(CCCl)CCCl)NCCCO1 (centres unmarked) [Cyclophosphamide]
effectiveness of combined treatment (MDA-MB-231 cells; 30 mM Cyclophosphamide + 1.75 V/cm TTFields applied for 1 hour): not effective
effectiveness of combined treatment (MDA-MB-231 cells; 30 mM Cyclophosphamide + 1.75 V/cm TTFields applied for 6 hours or more): fully effective

N.N.[Cl][Pt][Cl] [Cisplatin, cis-diamminedichloroplatinum(II)]
cell proliferation under combined treatment ([1]; Cisplatin 15 μM + TTFields 200 kHz approx. 7 V/cm): complete cell proliferation arrest
reduced cell proliferation as compared with the control ([1]; Cisplatin 15 μM alone): 63%
cell proliferation, drug alone compared with drug + TTFields ([2]; Cisplatin 15 μM): reduced cell proliferation to a lesser extent
